Data published in publication PMC12454639, “Direct disassembly of α-syn preformed fibrils into α-syn monomers by an all-D-peptide” (NPJ Parkinson's Disease, 2025).
Entries after “also recorded” stand apart in the source; their conditions may differ. Square brackets hold non-standard residues; d marks the D form. Peptide text beside a SMILES is read from it.

How the values were obtained:
α-syn monomer = assay: CD secondary structure analysis of de novo aggregation; assay type: biochemical; details: 10 µM α-syn + 20 µM SVD-1a (two-fold molar excess), 7 days
Description: Fig. 7 De novo aggregation analysis of α-syn in the presence and absence of SVD-1a. A De novo ThT assay of 10 µM α-syn with and without 20 µM SVD-1a. ThT fluorescence progression was measured in a 96-well non-binding half-area plate (Corning, USA) with a FLUOStar plate reader (BMG labtech, GE) at λex = 448 nm and λem = 482 nm with 300 rpm continuous orbital shaking between reads. For induction of aggregation, one borosilicate bead per well was added (d = 3 mm, Hilgenberg, GE). Data are shown as mean values with ±SD (n = 5). B CD secondary structure analysis of de novo aggregation samples. Samples were incubated as described in (A) without added ThT (n = 3) and subsequently pooled for CD analysis. Far-UV ellipticity of the samples was measured in a quartz cuvette (l = 10 mm) in a J-1100 CD-spectrometer (Jasco, GE). In addition to (A), a sample with 20 µM SVD-1a alone was incubated under identical conditions and later used as a reference for the sample with α-syn and SVD-1a. For this sample (α-syn + SVD-1a (after incubation)), the SVD-1a reference subtracted CD spectrum is shown. […] D α-Syn in the flow through (MWCO < 100 kDa) was quantified using an α-syn specific ELISA (BioLegend, Human α-Synuclein (Colorimetric), 448607, n = 3). E Retentate and flow-through samples were analyzed using SDS–PAGE with silver staining. […]

[1] = CD spectroscopy of SVD-1a alone; assay type: physicochemical; details: 30 µM, PBS pH 7.4, 37 °C
Description: Far-UV circular dichroism (CD) data were collected using a Jasco J-1100 spectropolarimeter (Jasco, GE). 350 µl samples were pooled and loaded into a high precision quartz cuvette with a path length of 1 mm (Hellma group, GE). A scan speed of 20 nm/min with five accumulations per sample was performed using far UV wavelengths from 260 to 190 nm. Baseline was corrected by subtracting measurements of the reference sample only.
Supplementary Fig. 13: Analysis of the seeded aggregation assay in the presence and absence of SVD-1a using circular dichroism (CD) spectroscopy. Small α-syn PFF (500 nM) were incubated in PBS (pH 7.4) at 37 °C under quiescent conditions for 24 hours, either alone or in the presence of 15 µM α-synuclein monomer and/or 30 µM SVD-1a. For each condition and time point, three replicates (each 120 µl) were pooled and analyzed by CD spectroscopy at 0, 2, 8, and 24 hours. Far-UV ellipticity was measured in a quartz cuvette (path length = 10 mm) using a J-1100 CD spectrometer (Jasco, GE). […] (D) Co-incubation of 500 nM α-synuclein PFFs with 15 µM α-synuclein monomer induced a structural transition towards β-sheet formation, as reflected in the CD spectrum (referenced to spectrum in (A)).

CC[C@@H](C)[C@@H](NC(=O)[C@@H](Cc1c[nH]cn1)NC(=O)[C@@H](CCC(=O)O)NC(=O)[C@@H](CCC(N)=O)NC(=O)[C@@H](Cc1c[nH]c2ccccc12)NC(=O)[C@@H](Cc1ccc(O)cc1)NC(=O)[C@H](NC(=O)[C@@H](CCC(=O)O)NC(=O)[C@@H](Cc1c[nH]cn1)NC(=O)[C@H](NC(=O)[C@H]1CCCN1C(=O)[C@@H](CC(C)C)NC(=O)[C@H](N)CCCNC(=N)N)[C@H](C)O)[C@H](C)O)C(=O)N[C@H](Cc1c[nH]c2ccccc12)C(=O)N[C@H](Cc1c[nH]cn1)C(=O)N[C@H](C)C(=O)N[C@H](CCCNC(=N)N)C(=O)N[C@H](CCCNC(=N)N)C(=O)N[C@H](CCCNC(=N)N)C(=O)N[C@H](CCCNC(=N)N)C(=O)N[C@H](CCCNC(=N)N)C(N)=O [SVD-1a] (H-[dR][dL][dP][dT][dH][dE][dT][dY][dW][dQ][dE][dH][dI][dW][dH][dA][dR][dR][dR][dR][dR]-NH2)
α-syn secondary structure after de novo aggregation (CD) (α-syn monomer): no spectrum shift towards a beta-sheet spectrum was observed; also recorded: fully stabilizes monomeric α-syn in its random coil secondary structure after 7 days of incubation
secondary structure of peptide alone (CD) [1]: random coil secondary structure
